Legend:
Format in all cases: cell-based
[1] = system: Sixty cell lines representing blood cancer histologies; experiment: Sensitivity to PI3K inhibition in sixty cancer cell lines (MTT); conditions: BKM120 and BEZ235 in all 60 cell lines; BGT226 in 31 cell lines; read-out: observed IC50s, range over the cell lines
From the text: (§1) A total of 60 cell lines representative of different cancer types were obtained from the ATCC and grown and maintained in accordance with the provided guidelines. The cell lines represented the following distinct histologies: mantle cell lymphoma (5 lines: JVM13, Rec1, Mino, JVM2, Jeko); germinal center B-cell derived (“GCB”) DLBCL (19 lines: Farage, BJAB, Ly1, Ly2, Ly7, Ly8, Ly19, HBL2, HT, Karpas422, Pfeiffer, RCK8, RL, Sci-1, Ski, SUDHL4, SUDHL7, Toledo, WSU-NHL); primary mediastinal B-cell lymphoma (“PMBL”) (3 lines: K1106, MEDB1, U2940); Burkitt lymphoma (11 lines: Daudi, CA46, EB1, EB2, EB3, Jijoye, Raji, Ramos, Namwala, BL2, BL41); Hodgkin lymphoma (3 lines: RMPI6666, L1236, L428); activated B-cell derived (“ABC”) DLBCL (6 lines: Ly3, HBL1, TMD8, Ly10, Riva, U2932); multiple myeloma (6 lines: U266, SKMM1, RPMI8226, KMS12, IM9, H929); acute myelogenous leukemia (“AML”) (2 lines: U937, KG1); acute lymphoblastic leukemia (“ALL”) (2 lines: Reh, SR); and T-cell lymphoma (3 lines: Molt4, RPMI8402, Jurkat). The cell lines were tested within six months after resuscitation.
The 3-(4,5-dimethylthiazol-2-yl)-2,5-diphenyltetrazolium bromide (MTT) cell viability assay was used to determine cell viability in response to drug treatment. Five replicates per concentration tested were carried out in serial dilutions with a total of ten concentrations with a 50% reduction in drug concentration per dilution for each plate. A total of 15 μl of MTT reagent was added to each drug-treated well and incubated for three hours in 37° C. Detergent was added to each drug-treated well and incubated overnight at room temperature without exposure to light. Absorbance was measured at 570 nm using a plate reader from Tecan Group. The IC50 concentration was determined using the publicly available ED50 plus v1.0 software program. […]

RMPI6666 = experiment: MTT cell viability assay; conditions: RMPI6666, Hodgkin Lymphoma, RPMI 10% FBS
From the text: as §1
(§2) The 3-(4,5-dimethylthiazol-2-yl)-2,5-diphenyltetrazolium bromide (MTT) cell viability assay was used to determine cell viability in response to drug treatment. Five replicates per concentration tested were carried out in serial dilutions with a total of ten concentrations with a 50% reduction in drug concentration per dilution for each plate. A total of 15 μl of MTT reagent was added to each drug-treated well and incubated for three hours in 37° C. Detergent was added to each drug-treated well and incubated overnight at room temperature without exposure to light. Absorbance was measured at 570 nm using a plate reader from Tecan Group. The IC50 concentration was determined using the publicly available ED50 plus v1.0 software program.

JVM2 = experiment: MTT cell viability assay; conditions: Homo sapiens, JVM-2; JVM2, MantleCellLymphoma, RPMI 10% FBS
From the text: as §1, §2

HBL1 = experiment: MTT cell viability assay; conditions: HBL1, ABC DLBCL, RPMI 10% FBS
From the text: as §1, §2

RCK8 = experiment: MTT cell viability assay; conditions: Homo sapiens; RCK8, GCB DLBCL, RPMI 15% FBS
From the text: as §1, §2

Mino = experiment: MTT cell viability assay; conditions: Homo sapiens, MantleCellLymphoma, RPMI 10% FBS
From the text: as §1, §2

RPMI8226 = experiment: MTT cell viability assay; conditions: Homo sapiens, RPMI-8226; RPMI8226, Multiple Myeloma, RPMI 10% FBS
From the text: as §1, §2

SUDHL7 = experiment: MTT cell viability assay; conditions: SUDHL7, GCB DLBCL, RPMI 15% FBS
From the text: as §1, §2

[2] = system: PI3K pathway (p-AKT, p-S6, p-GSKalpha, p-GSKbeta) in BJAB DLBCL cells; experiment: Confirmation of pathway downregulation (Western blot) in BJAB; conditions: for inhibition of the PI3K pathway: BJAB, time-course and dose-escalation experiments
Description: RIPA lysis buffer (1×PBS, 1% NP-40, 0.5% sodium deoxycholate, 0.1% SDS, 10 mmol/L sodium orthovanadate) was added to 750,000 cells and incubate on ice for 30 minutes. The mixture was spun down, and the supernatant was transferred to a new tube as the whole-cell extract. A total of 20 μg cell lysate was separated on a 4% to 18% Tris-Bis NuPAGE gel (Invitrogen) and transferred using the iBlot transfer device (Invitrogen) program 3 for seven minutes. The blots were probed with a 1:100 p-AKT, 1:1000 total AKT, 1:100p-GSK3alpha, 1:100 p-GSK3beta, or 1:100 p-s6 (Cell Signaling), or 1:5000 goat anti-β-actin (SC-47778, Santa Cruz Biotech) for one hour at room temperature. The antibodies were detected by the use of 1:10,000 goat anti-mouse-HRP conjugated antibodies (Santa Cruz Biotech). Western Blotting Luminol Reagent (Santa Cruz Biotech) was used to visualize the bands corresponding to each antibody.
One million BJAB DLBCL cells were treated with increasing doses of BEZ235, and, after six hours, the cells were analyzed for a dose-dependent effect at 15, 30, 60, 125, 250, and 500 nmol/L concentrations. Cell count and viability were measured for each concentration. […] Western blot analyses were performed to assess phosphorylation of AKT, GSK3alpha, GSK3beta, and S6.
Inhibition of the PI3K pathway by the three PI3K inhibitors was confirmed through separate time-course and dose-escalation experiments, as well as by measuring the expression of key downstream members of the pathway. The drugs were tested in the BJAB DLBCL for their effects on p-AKT, p-S6, p-GSKalpha, and p-GSKbeta. […] An associated decrease in cell viability was ruled out by quantifying the proportion of viable cells at each time point using trypan blue staining.

IC50 [1] | IC50 (RPMI8226) | IC50 (SUDHL7) | SMILES | IC50 (RMPI6666) | IC50 (JVM2) | IC50 (HBL1) | IC50 (RCK8) | IC50 (Mino) | down regulation of PI3K targets, time course ([2]; 30 nmol/L BEZ235, three and six hours after treatment, total AKT and actin unchanged) | inhibition of the PI3K pathway [2]
10 to 9000 nM | 56.9 nM | 22.2 nM | Cn1c(=O)n(-c2ccc(C(C)(C)C#N)cc2)c2c3cc(-c4cnc5ccccc5c4)ccc3ncc21 [BEZ235] | 52 nM | 491 nM | 71.7 nM | 20 nM | 60.8 nM | time-dependent down regulation | directly inhibit the PI3K pathway
3 to 200 nM | – | – | COc1ccc(-c2ccc3ncc4c(c3c2)n(-c2ccc(N3CCNCC3)c(C(F)(F)F)c2)c(=O)n4C)cn1 [BGT226] | – | – | – | 21.8 nM | 10.5 nM | – | directly inhibit the PI3K pathway
200 to 7800 nM | 674 nM | 233 nM | Nc1cc(C(F)(F)F)c(-c2cc(N3CCOCC3)nc(N3CCOCC3)n2)cn1 [BKM120] | 3300 nM | 1390 nM | 1670 nM | 3260 nM | 460 nM | – | directly inhibit the PI3K pathway

Source: patent publication US9861625B2, “Methods and compositions for treating cancer through inhibition of PI3K” (Duke University, priority 2014, dated 2018)
